Experimental data taken from patent publication US10799507B2, “5-(7H-pyrrolo[2,3-d]pyrimidin-4-yl)-5-azaspiro[2.5]octane-8-carboxylic acid derivatives as novel JAK kinase inhibitors” (LEO Pharma A/S, priority 2017, dated 2020).

Key:
Assay type in all cases: biochemical
[1] = molecular target: TYK2 (Homo sapiens (Human), UniProt P29597); assay: JAK kinase assay (HTRF), TYK2; conditions: catalytic domain, ATP at Km (13 μM)
Method: (§1) Human baculovirus-expressed JAK1, 2, 3 and TYK2 were purchased from Carna Biosciences, Inc. All four purified enzymes contain only the catalytic domain. JAK1 (aa 850-1154) and TYK2 (aa 871-1187) are expressed with an N-terminally fused GST-tag, and JAK2 and JAK3 with an N-terminally fused His-tag.
(§2) Inhibition of phosphorylation of a synthetic peptide was measured in an HTRF-based assay using the TK substrate-Biotin from the Cisbio HTRFKinEASE TK kit. First, 2 μl of TK solution (TK substrate-biotin in kinase buffer [1× enzymatic buffer from HTRFKinEASE TK kit, 1 mM DTT]) is added to a plate containing 1 μl prediluted compound (final assay concentration DMSO: 0.75%). Then, 5 μl kinase-ATP mix (prepared in kinase buffer) is added to the wells and the plates are incubated at RT for 20-30 min. For all four kinases a concentration of ATP that corresponded to the Km for ATP was used. The final concentrations of buffers, substrate, kinase and ATP were: JAK1: 50 mM Hepes buffer pH 7.0, 0.01% BSA, 10 mM MgCl2, 1 mM DTT, 7 μM ATP, 50 nM SEB, 1 μM TK Substrate-Biotin and 5 ng JAK1; JAK2: 50 mM Hepes buffer pH 7.0, 0.01% BSA, 5 mM MgCl2, 1 mM DTT, 4 μM ATP, 1 μM TK Substrate-Biotin and 0.1 ng JAK2; JAK3: 50 mM Hepes buffer pH 7.0, 0.01% BSA, 5 mM MgCl2, 1 mM DTT, 2 μM ATP, 1 μM TK Substrate-Biotin and 0.3 ng JAK3; TYK2: 50 mM Hepes buffer pH 7.0, 0.01% BSA, 5 mM MgCl2, 1 mM DTT, 13 μM ATP, 50 nM SEB, 1 μM TK Substrate-Biotin and 0.8 ng TYK2. Thereafter, the kinase reaction is stopped by adding 4 μl detection mix (final concentrations: 50 mM Hepes buffer pH 7.0, 0.01% BSA, 0.8 M KF, 20 mM EDTA, 42 nM Streptavidin-XL665 and 1:400 STK Ab Cryptate) and the plates are incubated overnight in the dark. The HTRF signal is read using an Envision plate reader.
(§3) In Table 1 selected JAK kinase inhibitory activities are listed along with analytical tR and observed M+H^+ data (UPLC-MS method 7).

[2] = molecular target: JAK3 (Homo sapiens (Human), UniProt P52333); assay: JAK kinase assay (HTRF), JAK3; conditions: catalytic domain, ATP at Km (2 μM)
Sequence of JAK3 (P52333 822-1111): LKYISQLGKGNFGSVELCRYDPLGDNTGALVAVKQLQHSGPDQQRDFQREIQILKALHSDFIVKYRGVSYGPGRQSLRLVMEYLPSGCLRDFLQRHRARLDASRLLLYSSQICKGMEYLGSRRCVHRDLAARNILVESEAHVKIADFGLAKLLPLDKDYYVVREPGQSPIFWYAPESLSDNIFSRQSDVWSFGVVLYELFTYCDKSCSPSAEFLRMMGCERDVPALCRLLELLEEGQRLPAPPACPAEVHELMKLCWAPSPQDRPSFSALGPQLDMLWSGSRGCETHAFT
Method: as §1, §2, §3

[3] = molecular target: JAK2 (Homo sapiens (Human), UniProt O60674); assay: JAK kinase assay (HTRF), JAK2; conditions: catalytic domain, ATP at Km (4 μM)
Sequence of JAK2 (O60674 849-1124): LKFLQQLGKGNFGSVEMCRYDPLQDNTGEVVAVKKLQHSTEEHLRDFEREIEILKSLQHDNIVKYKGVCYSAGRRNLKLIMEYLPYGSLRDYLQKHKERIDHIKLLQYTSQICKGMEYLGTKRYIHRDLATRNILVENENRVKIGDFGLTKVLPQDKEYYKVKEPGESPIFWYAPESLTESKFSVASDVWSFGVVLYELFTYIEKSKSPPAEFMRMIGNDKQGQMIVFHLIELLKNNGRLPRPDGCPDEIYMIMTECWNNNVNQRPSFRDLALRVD
Method: as §1, §2

[4] = molecular target: JAK1 (Homo sapiens (Human), UniProt P23458); assay: JAK kinase assay (HTRF), JAK1; conditions: catalytic domain, ATP at Km (7 μM)
Sequence of JAK1 (P23458 850-1154): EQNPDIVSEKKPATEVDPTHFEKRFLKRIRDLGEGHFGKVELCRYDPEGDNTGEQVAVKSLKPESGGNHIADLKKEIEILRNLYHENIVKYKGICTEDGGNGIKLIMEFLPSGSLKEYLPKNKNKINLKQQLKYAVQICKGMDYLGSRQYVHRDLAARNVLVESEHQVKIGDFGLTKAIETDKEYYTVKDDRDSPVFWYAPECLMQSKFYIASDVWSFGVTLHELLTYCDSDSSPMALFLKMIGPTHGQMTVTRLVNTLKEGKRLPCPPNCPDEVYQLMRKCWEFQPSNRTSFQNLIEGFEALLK
Method: as §1, §2

Sequence of TYK2 (P29597 871-1187): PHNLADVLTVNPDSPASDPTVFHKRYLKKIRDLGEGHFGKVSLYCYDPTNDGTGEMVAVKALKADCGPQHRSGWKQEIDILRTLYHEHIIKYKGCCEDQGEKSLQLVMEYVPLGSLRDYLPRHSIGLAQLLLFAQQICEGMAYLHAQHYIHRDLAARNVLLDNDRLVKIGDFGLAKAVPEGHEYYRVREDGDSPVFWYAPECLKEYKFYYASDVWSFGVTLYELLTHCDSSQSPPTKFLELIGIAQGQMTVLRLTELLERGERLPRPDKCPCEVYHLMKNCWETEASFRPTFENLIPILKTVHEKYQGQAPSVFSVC

| SMILES | EC50 [1] [nM] | EC50 [2] [nM] | EC50 [3] [nM] | EC50 [4] [nM] |
| --- | --- | --- | --- | --- |
| NS(=O)(=O)c1ccc(CNC(=O)C2CCN(c3ncnc4[nH]ccc34)CC23CC3)cc1 (stereo not shown) [Example 33, 5-(7H-pyrrolo[2,3-d]pyrimidin-4-yl)-N-[(4-sulfamoylphenyl)methyl]-5-azaspiro[2.5]octane-8-carboxamide] | 28.9 | 6 | 5 | 1.9 |
| CCc1cc(C#N)ccc1[C@@H](C)NC(=O)[C@H]1CCN(c2ncnc3[nH]ccc23)CC12CC2 [Example 121, (8S)-N-[(1R)-1-(4-cyano-2-ethyl-phenyl)ethyl]-5-(7H-pyrrolo[2,3-d]pyrimidin-4-yl)-5-azaspiro[2.5]octane-8-carboxamide] | 289 | 141 | 44.7 | 15.3 |
| O=C(N[C@@H](CO)C1CCC1)[C@H]1CCN(c2ncnc3[nH]ccc23)CC12CC2 [Example 148, (8S)-N-[(1R)-1-cyclobutyl-2-hydroxy-ethyl]-5-(7H-pyrrolo[2,3-d]pyrimidin-4-yl)-5-azaspiro[2.5]octane-8-carboxamide] | 1080 | 163 | 139 | 70.6 |
| COc1cccc(CNC(=O)C2CCN(c3ncnc4[nH]ccc34)CC23CC3)c1 (stereo not shown) [Example 119, N-[(3-methoxyphenyl)methyl]-5-(7H-pyrrolo[2,3-d]pyrimidin-4-yl)-5-azaspiro[2.5]octane-8-carboxamide] | 539 | 71.1 | 36.8 | 13.4 |
| COc1ccc(CNC(=O)C2CCN(c3ncnc4[nH]ccc34)CC23CC3)cc1 (stereo not shown) [Example 90, N-[(4-methoxyphenyl)methyl]-5-(7H-pyrrolo[2,3-d]pyrimidin-4-yl)-5-azaspiro[2.5]octane-8-carboxamide] | 288 | 34.5 | 19.6 | 8.2 |
| C[C@H](NC(=O)C1CCN(c2ncnc3[nH]ccc23)CC12CC2)c1ccccc1 (stereo partly drawn) [Example 99, N-[(1S)-1-phenylethyl]-5-(7H-pyrrolo[2,3-d]pyrimidin-4-yl)-5-azaspiro[2.5]octane-8-carboxamide] | 399 | 31.1 | 11.2 | 9.1 |
| COc1cc(F)ccc1[C@H](CO)NC(=O)[C@H]1CCN(c2ncnc3[nH]ccc23)CC12CC2 [Example 109, (8S)-N-[(1R)-1-(4-fluoro-2-methoxy-phenyl)-2-hydroxy-ethyl]-5-(7H-pyrrolo[2,3-d]pyrimidin-4-yl)-5-azaspiro[2.5]octane-8-carboxamide] | 243 | 111 | 24.5 | 10.5 |
| N#Cc1ccc([C@H](CO)NC(=O)[C@H]2CCN(c3ncnc4[nH]ccc34)CC23CC3)nc1 [Example 47, (8S)-N-[(1R)-1-(5-cyano-2-pyridyl)-2-hydroxy-ethyl]-5-(7H-pyrrolo[2,3-d]pyrimidin-4-yl)-5-azaspiro[2.5]octane-8-carboxamide] | 176 | 32.4 | 13.7 | 3.1 |
| Cc1ccc([C@H](O)[C@H](C)NC(=O)[C@H]2CCN(c3ncnc4[nH]ccc34)CC23CC3)cc1 [Example 73, (8S)-N-[(1S,2S)-2-hydroxy-1-methyl-2-(p-tolyl)ethyl]-5-(7H-pyrrolo[2,3-d]pyrimidin-4-yl)-5-azaspiro[2.5]octane-8-carboxamide] | 171 | 30.9 | 8.3 | 6.1 |
| O=C(N[C@H](CO)Cc1ccccc1)C1CCN(c2ncnc3[nH]ccc23)CC12CC2 (stereo partly drawn) [Example 141, N-[(1S)-1-benzyl-2-hydroxy-ethyl]-5-(7H-pyrrolo[2,3-d]pyrimidin-4-yl)-5-azaspiro[2.5]octane-8-carboxamide] | 4160 | 52 | 81.6 | 41.2 |
| Cc1cc(F)ccc1[C@H](CO)NC(=O)[C@H]1CCN(c2ncnc3[nH]ccc23)CC12CC2 [Example 77, (8S)-N-[(1R)-1-(4-fluoro-2-methyl-phenyl)-2-hydroxy-ethyl]-5-(7H-pyrrolo[2,3-d]pyrimidin-4-yl)-5-azaspiro[2.5]octane-8-carboxamide] | 115 | 31.3 | 16.3 | 6.2 |
| O=C(NCc1ccc(F)cc1)C1CCN(c2ncnc3[nH]ccc23)CC12CC2 (stereo not shown) [Example 53, N-[(4-fluorophenyl)methyl]-5-(7H-pyrrolo[2,3-d]pyrimidin-4-yl)-5-azaspiro[2.5]octane-8-carboxamide] | 106 | 20.8 | 8.9 | 3.6 |
| N#Cc1cccc([C@H](CO)NC(=O)[C@H]2CCN(c3ncnc4[nH]ccc34)CC23CC3)c1 [Example 67, (8S)-N-[(1R)-1-(3-cyanophenyl)-2-hydroxy-ethyl]-5-(7H-pyrrolo[2,3-d]pyrimidin-4-yl)-5-azaspiro[2.5]octane-8-carboxamide] | 45 | 13.8 | 5.2 | 5.1 |
| O=C(NCC1CC(F)(F)C1)[C@H](O)CNC(=O)[C@H]1CCN(c2ncnc3[nH]ccc23)CC12CC2 (single isomer, unassigned) [Example 130] | 490 | 51 | 45.9 | 23.2 |
| O=C(NCCc1ccccc1)C1CCN(c2ncnc3[nH]ccc23)CC12CC2 (stereo not shown) [Example 114, N-phenethyl-5-(7H-pyrrolo[2,3-d]pyrimidin-4-yl)-5-azaspiro[2.5]octane-8-carboxamide] | 858 | 64.8 | 37 | 11.7 |
| CC(CO)(NC(=O)C1CCN(c2ncnc3[nH]ccc23)CC12CC2)c1ccccc1 (stereo not shown) [Example 118, N-(2-hydroxy-1-methyl-1-phenyl-ethyl)-5-(7H-pyrrolo[2,3-d]pyrimidin-4-yl)-5-azaspiro[2.5]octane-8-carboxamide] | 832 | 77.7 | 24.3 | 13.1 |
| N#Cc1ccc(CNC(=O)[C@@H]2CCN(c3ncnc4[nH]ccc34)CC23CC3)cc1 [Example 145, (8R)-N-[(4-cyanophenyl)methyl]-5-(7H-pyrrolo[2,3-d]pyrimidin-4-yl)-5-azaspiro[2.5]octane-8-carboxamide] | 5740 | 176 | 251 | 64.4 |
| NS(=O)(=O)c1cccc(CNC(=O)C2CCN(c3ncnc4[nH]ccc34)CC23CC3)c1 (stereo not shown) [Example 55, 5-(7H-pyrrolo[2,3-d]pyrimidin-4-yl)-N-[(3-sulfamoylphenyl)methyl]-5-azaspiro[2.5]octane-8-carboxamide] | 141 | 13.4 | 18.5 | 3.7 |
| O=C(NCc1ccncc1)C1CCN(c2ncnc3[nH]ccc23)CC12CC2 (stereo not shown) [Example 85, N-(4-pyridylmethyl)-5-(7H-pyrrolo[2,3-d]pyrimidin-4-yl)-5-azaspiro[2.5]octane-8-carboxamide] | 798 | 42.8 | 28.7 | 7.1 |
| O=C(N[C@@H](CO)c1ccccn1)[C@H]1CCN(c2ncnc3[nH]ccc23)CC12CC2 [Example 122, (8S)-N-[(1R)-2-hydroxy-1-(2-pyridyl)ethyl]-5-(7H-pyrrolo[2,3-d]pyrimidin-4-yl)-5-azaspiro[2.5]octane-8-carboxamide] | 203 | 153 | 37.3 | 16.3 |
| Cc1cc([C@@H](O)[C@H](C)NC(=O)[C@H]2CCN(c3ncnc4[nH]ccc34)CC23CC3)ncc1F [Example 133, (8S)-N-[(1S,2S)-2-(5-fluoro-4-methyl-2-pyridyl)-2-hydroxy-1-methyl-ethyl]-5-(7H-pyrrolo[2,3-d]pyrimidin-4-yl)-5-azaspiro[2.5]octane-8-carboxamide] | 375 | 148 | 37.5 | 27.3 |
| COc1cc(C#N)ccc1[C@H](CO)NC(=O)[C@H]1CCN(c2ncnc3[nH]ccc23)CC12CC2 [Example 120, (8S)-N-[(1R)-1-(4-cyano-2-methoxy-phenyl)-2-hydroxy-ethyl]-5-(7H-pyrrolo[2,3-d]pyrimidin-4-yl)-5-azaspiro[2.5]octane-8-carboxamide] | 392 | 154 | 40.2 | 13.7 |
